{
  "source": "patent US10968214B2",
  "about": "“KRas G12C inhibitors” (Eli Lilly and Company, priority 2018, dated 2021)",
  "key": {"MiaPaca-2 xenograft": {"system": "MiaPaca-2 xenograft", "assay": "Anti-tumor growth activity, MiaPaca-2 pancreatic xenograft", "assay_type": "in vivo", "conditions": "for Tumor Growth Inhibition (%) or Regression (−%): 28 Day, negative = regression"}, "LU-99": {"system": "LU-99", "assay": "CellTiterGlo Cell Proliferation Assay, LU-99", "assay_type": "cell-based", "conditions": "Homo sapiens, KRas G12C, Lung, 96 hr", "method": "(§1) A panel of tumor cell lines harboring KRas G12C or other KRas mutations are collected (Table 6). All cell lines are from ATCC or other sources indicated.\n(§2) Typically cells are cultured in RPMI1640 or Dulbecco's modified Eagle's medium (DMEM, GIBCO) supplemented with 10% FBS (GIBCO, Invitrogen). For 2D culture cells (4×10^3/well) maintained in growth medium described above, are plated onto 96 well tissue culture plates Corning® Cat. 3603) a day before the treatment. For 3D culture 8000 cells/well are seeded onto 96 well ultra-low attachment tissue culture plates (Corning, #3474). The cells are treated compound for 96 hr, and then are analyzed for viability using the CellTiterGlo® Luminescent Cell Viability Assay® (Promega #G7572 for 2D and Promega #G9683 for 3D cultures) according to manufacturer's instructions and an EnVision™ plate reader. Nonlinear regression and sigmoidal dose-response curves are used to calculate the half maximal inhibitory concentration (IC50) with GraphPad Prism 4® software."}, "H1373": {"system": "H1373", "assay": "CellTiterGlo Cell Proliferation Assay, H1373", "assay_type": "cell-based", "conditions": "Homo sapiens, NCI-H1373, KRas G12C, Lung, 96 hr", "method": "as §1, §2"}, "MIA Paca-2": {"system": "MIA Paca-2", "assay": "Combination 4 day growth assay (Cell TiterGlo), MIA Paca-2", "assay_type": "cell-based", "conditions": "Homo sapiens, MIA PaCa-2, 96 h, single treatment, read-out: Absolute IC50", "method": "(§3) Cell lines for this study are obtained from ATCC and grown under ATCC recommended conditions, except for LXFA-983L, which is obtained from Oncotest/Charles Rivers Laboratories, Wilmington, Mass. and D122-96, which is obtained from L. Eisenbach (Weizman Institute of Science, Rehovot, Israel)—both grown under recommended conditions. […] The proliferation assay is performed as a 4 day growth assay using Cell TiterGlo® as the readout. Briefly, cells are plated in 96-well cell culture plates and allowed to adhere overnight at 37° C. The following day, cells are treated with compounds, either single treatments or combination treatments. First, the testing compounds are serially diluted in DMSO, followed by dilution into media as a 5× concentration with 1% DMSO, and finally added to cells in media to dilute to 1×. The cells are incubated at 37° C. for 4 more days. At the end of the incubation period, Cell TiterGlo® reagent is mixed and added to the wells. After 10 minutes, the luminescence is read by a Perkin Elmer Envision instrument. Absolute IC50 values generated by a 4-parameter logistics model for the single and combination treatments are generated, followed by combination indexes for each combination treatment and cell line. The combination IC50 values are adjusted based on the total concentration of each compound when added together. […] The combination index (CI) measures the degree to which the potency of a combination therapy differs from the expected-if-additive potency and is based on the Loewe definition of additivity.\n(§4) [formula] Where • CAy and CBy are the concentrations of therapies A and B that produce an effect, y, when given in combination • ICAy and ICBy are the concentrations of A and B that produce an effect, y, when given individually The biological interpretation of the combination index is as follows: synergistic if the combination index <0.5, additive if the combination index is between 0.5 and 2, and antagonistic if the combination index is >2."}, "[1]": {"system": "phosphorylation of p-ERK1/2 in H358 cells", "assay": "H358 Cellular Phospho-ERK AlphaLISA", "assay_type": "cell-based, Human", "conditions": "Homo sapiens, NCI-H358, 2 h", "method": "This assay is used to measure the ability of test compounds to inhibit the phosphorylation of p-ERK1/2, a downstream effector of KRas in Human lung cancer cells H358 (ATCC CRL-5807). Briefly, the AlphaLISA® SureFire® Ultra™ p-ERK 1/2 (Thr202/Tyr204) assay is a sandwich immunoassay for quantitative detection of phospho-ERK 1/2 (phosphorylated on Thr202/Tyr204 in ERK1, or Thr185/Tyr187 in ERK2) in cellular lysates using Alpha Technology (Perkin Elmer Cat #ALSU-PERK-A50K).\nH358 cells are plated at 40K cells per well in 100 μL media (RPMI 1640, GIBCO Cat #22400-071) containing 10% FBS (GIBCO Cat #: 10082-147) in a 96 well plate (Costar #3596) and are incubated overnight in humid trays at 37° C., 5% CO2. The next morning, 10 μL of serially-diluted (3-fold) test compounds (50 μM top concentration) and 10 uL of controls (Maximum signal wells: 5% DMSO and Minimum signal wells: 2 μM of N-(3-{3-cyclopropyl-5-[(2-fluoro-4-iodophenyl)amino]-6,8-dimethyl-2,4,7-trioxo-3,4,6,7-tetrahydropyrido[4,3-D]pyrimidin-1(2H)-yl}phenyl)acetamide (trametinib, as a positive control) are added to the cell plate and incubated for 2 hr in humid trays at 37° C./5% CO2. Lysis Buffer is prepared at RT containing a protease and phosphatase inhibitor cocktail. Culture medium is removed by inverting and shaking the cell plate in the sink and then blotting onto a paper towel. Lysis buffer is added to the cell plate (50 μL per well) and the plate is incubated at RT for 10 min on a shaker. For p-ERK detection, acceptor beads are diluted into a suspension mixture with buffer. Using a Starlett liquid handler, 5 μL of acceptor beads and 2 μL of cell lysate are transferred as a single-step in-tip dilution to a 384 well assay plate. The assay plate is sealed with foil and is incubated at RT for 2 hrs. Donor beads are diluted into a suspension mixture with buffer. Using the Starlet, 5 μL of donor beads are added to the assay plate that is then sealed, wrapped with foil. The plate is incubated at RT for 2 hrs in the dark. The assay plate is then read on an EnVision™ Plate Reader (Perkin Elmer) using a luminescence program.\nThe signal is converted to percent inhibition using the following equation: % Inhibition=100−[(Test Compound Signal−Median Minimum Signal)/(Median Maximum Signal−Median Min Signal)×100]. The Maximum signal is a control well without inhibitor."}, "SW837 xenograft": {"system": "SW837 xenograft", "assay": "Anti-tumor growth activity, SW837 colorectal xenograft", "assay_type": "in vivo", "conditions": "for Tumor Growth Inhibition (%) or Regression (−%): 28 Day, negative = regression"}, "H23": {"system": "H23", "assay": "Combination 4 day growth assay (Cell TiterGlo), H23", "assay_type": "cell-based", "conditions": "Homo sapiens, NCI-H23, 96 h, single treatment, read-out: Absolute IC50", "method": "as §3, §4"}, "H358": {"system": "H358", "assay": "Combination 4 day growth assay (Cell TiterGlo), H358", "assay_type": "cell-based", "conditions": "Homo sapiens, NCI-H358, 96 h, single treatment, read-out: Absolute IC50", "method": "as §3, §4"}, "[2]": {"conditions": "read-out: IC50 (μM) in 2 D cell proliferation"}, "[3]": {"conditions": "read-out: IC50 (μM) in 3 D spheroid cell proliferation"}},
  "note": "Like-named read-outs stand apart in the source and are kept apart here.",
  "data": [
    {"smiles": "C=CC(=O)N1CCN(c2ncnc3c(F)c(-c4ccc(F)c5sc(N)nc45)c(Cl)cc23)CC1", "note": "[Example 1, 1-{4-[7-(2-Amino-7-fluoro-1,3-benzothiazol-4-yl)-6-chloro-8-fluoroquinazolin-4-yl]piperazin-1-yl}prop-2-en-1-one]", "values": [
      {"measurement": "Tumor Growth Inhibition (%) or Regression (−%)", "setting": "MiaPaca-2 xenograft; 10 mg/kg BID", "result": 75.48, "unit": "%"},
      {"measurement": "Tumor Growth Inhibition (%) or Regression (−%)", "setting": "MiaPaca-2 xenograft; 10 mg/kg QD", "result": 44.4, "unit": "%"},
      {"measurement": "Tumor Growth Inhibition (%) or Regression (−%)", "setting": "MiaPaca-2 xenograft; 30 mg/kg BID", "result": "−49.6", "unit": "%"},
      {"measurement": "Tumor Growth Inhibition (%) or Regression (−%)", "setting": "MiaPaca-2 xenograft; 30 mg/kg QD", "result": 95.6, "unit": "%"},
      {"measurement": "In Vivo Anti-Tumor Activities", "setting": "MiaPaca-2 xenograft; Example 1 30 mg/kg QDx28", "result": 91.22},
      {"measurement": "IC50", "setting": "LU-99; [2]", "result": 1.57, "unit": "µM"},
      {"measurement": "IC50", "setting": "LU-99; [3]", "result": 0.659, "unit": "µM"},
      {"measurement": "IC50", "setting": "H1373; [2]", "result": 0.209, "unit": "µM"},
      {"measurement": "IC50", "setting": "H1373; [3]", "result": 0.02, "unit": "µM"},
      {"measurement": "IC50", "setting": "MIA Paca-2", "result": 22, "unit": "nM"},
      {"measurement": "IC50", "setting": "[1]; read-out: pERK", "result": 5.66, "unit": "nM"},
      {"measurement": "IC50", "setting": "[1]; read-out: relative IC50", "result": 5.7, "unit": "nM"},
      {"measurement": "Tumor Growth Inhibition (%) or Regression (−%)", "setting": "SW837 xenograft; 15 mg/kg BID", "result": "−17", "unit": "%"},
      {"measurement": "Tumor Growth Inhibition (%) or Regression (−%)", "setting": "SW837 xenograft; 30 mg/kg BID", "result": "−46.1", "unit": "%"},
      {"measurement": "Tumor Growth Inhibition (%) or Regression (−%)", "setting": "SW837 xenograft; 30 mg/kg QD", "result": "−10.8", "unit": "%"},
      {"measurement": "In Vivo Anti-Tumor Activities", "setting": "SW837 xenograft; Example 1 30 mg/kg QDx28", "result": "−51.8"},
      {"measurement": "IC50", "setting": "H23", "result": 235, "unit": "nM"},
      {"measurement": "IC50", "setting": "H358", "result": 41.9, "unit": "nM"}
    ]}
  ]
}
